Data set [1] addresses T1, mouse TLR7 (Mus musculus, UniProt P58681).
T1 construct: host or cells: HEK293
T1 sequence (P58681 27-1050): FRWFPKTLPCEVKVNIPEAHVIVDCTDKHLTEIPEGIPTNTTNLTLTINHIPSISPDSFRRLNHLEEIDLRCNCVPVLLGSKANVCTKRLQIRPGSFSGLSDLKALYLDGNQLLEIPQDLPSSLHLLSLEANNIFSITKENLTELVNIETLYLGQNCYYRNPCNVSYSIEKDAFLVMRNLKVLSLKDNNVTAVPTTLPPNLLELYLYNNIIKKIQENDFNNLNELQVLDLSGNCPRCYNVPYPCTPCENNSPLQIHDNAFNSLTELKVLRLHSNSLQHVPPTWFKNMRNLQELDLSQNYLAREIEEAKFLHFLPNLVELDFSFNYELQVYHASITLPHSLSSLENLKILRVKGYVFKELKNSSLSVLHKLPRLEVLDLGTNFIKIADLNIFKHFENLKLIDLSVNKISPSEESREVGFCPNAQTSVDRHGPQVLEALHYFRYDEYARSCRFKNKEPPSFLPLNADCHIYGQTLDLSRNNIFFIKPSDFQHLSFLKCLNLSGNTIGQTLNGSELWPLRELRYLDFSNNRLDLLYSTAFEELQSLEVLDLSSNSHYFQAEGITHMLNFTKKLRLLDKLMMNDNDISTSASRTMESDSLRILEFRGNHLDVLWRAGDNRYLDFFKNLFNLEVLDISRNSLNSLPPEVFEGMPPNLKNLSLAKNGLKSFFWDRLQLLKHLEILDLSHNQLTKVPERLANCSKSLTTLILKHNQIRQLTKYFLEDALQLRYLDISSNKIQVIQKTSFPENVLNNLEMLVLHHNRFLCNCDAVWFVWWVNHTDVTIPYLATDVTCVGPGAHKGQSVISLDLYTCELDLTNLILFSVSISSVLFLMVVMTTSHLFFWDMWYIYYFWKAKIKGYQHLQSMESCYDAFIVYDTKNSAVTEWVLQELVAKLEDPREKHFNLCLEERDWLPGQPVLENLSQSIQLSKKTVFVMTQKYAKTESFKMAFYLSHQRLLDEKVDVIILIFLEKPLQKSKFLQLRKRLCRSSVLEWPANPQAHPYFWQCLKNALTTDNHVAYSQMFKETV
Put plainly: HEK293 SEAP reporter assay, TLR panel (Example 10). The class given is cell-based. The following applies: 16 hrs. An excerpt:
In this example, the activity of the compound 10 to stimulate different human and mouse TLR pathways was investigated on HEK293 cells transfected with inducible SEAP (secreted embryonic alkaline phosphatase) reporter genes and also expressing different human TLRs (TLR2, TLR3, TLR4, TLR5, TLR7, TLR8, TLR9) or mouse TLRs (TLR2, TLR3, TLR4, TLR5, TLR7, TLR8, TLR13).
HEK293 reporter cell lines were purchased from Invivogen and cell lines were maintained in manufacture recommended culture medium with required supplemental antibiotics. On the day of assay, the cells were harvested with Accutase and counted by the Vi-CELL Cell Viability Analyzers. Cells were resuspended in HEK blue detection medium and a total of 10000 cells were seeded in each well of a 384-well flat bottom plate. Serial dilutions of compound 10 and compound 1 was added into treatment wells. Assay plates were cultured at 37° C. in a CO2 incubator for 16 hrs. HEK-Blue™ Detection medium changes to a purple/blue color in the presence of secreted SEAP, which can be detected by spectrophotometry at 620-655 nm. Data was fitted with non-linear regression analysis, using a log(inhibitor) vs. response-variable slope, 3-parameter fit with GraphPad Prism.

Data set [2] can be described thus: Body weight / tolerability in MC38-hFolRα tumor-bearing mice. The class given is in vivo, mouse. On the procedure:
Female C57BL/6 mice at 9-10 weeks of age were anesthetized with isoflurane and implanted subcutaneously into the right hind flank with 1×10^6 MC38-hFolRα (murine colon adenocarcinoma cells engineered to express hFolRα). Randomization and start of treatment was initiated when the average tumor size was approximately 150 mm^3 (designated as Day 0 post-treatment). Animals received intratumoral (IT) injections of Compound 2 on Day 0 and Day 4 (q4d×2). Compound 2 was dissolved in DMSO and dosing solutions were formulated in PBS. Body weight and tumor size were monitored 3×/week. The primary study endpoint was reached when the mean tumor size of the vehicle control group was >1,200 mm^3.

Data set [3] concerns cyno PBMCs. Put plainly: Cytokine release (ELISA). Type of data set: cell-based, cynomolgus monkey. Particulars: 48 hr, 10 μg/mL LPS-RS. On the procedure: This example evaluates the ability of Compound 10 to induce cytokine release in human PBMCs, cyno PBMCs and mouse splenocytes. Compound 1 and resiquimod:
Human and cyno PBMCs, mouse splenocytes were isolated as described in previous example. The day of the assay, 300 k of PBMC or splenocytes in 50 μL of culture medium were seeded in 96-well cell culture plates. 50 μl of the test articles (formulated at 2× of starting concentration) were then added into the well. The cell mixtures were co-cultured in the presence of test articles and 10 μg/mL LPS-RS for 24 hr (human PBMCs) or 48 hr (cyno PBMCs and mouse splenocytes). Cytokines released were measured by ELISA using cell culture medium.

Data set [4] concerns human PBMCs. Put plainly: Immune cell activation (CD86 expression, flow cytometry). The following applies: 48 hr, 10 μg/ml LPS-RS. Type of data set: cell-based. An excerpt:
This example evaluates the ability of Compound 10 to stimulate the activation of different immune cells populations (monocyte, B cell, and DCs), in human PBMCs (Peripheral blood mononuclear cells), cyno PBMCs and mouse splenocytes.
Peripheral blood mononuclear cells (PBMCs) were isolated from fresh collected blood from two healthy human donors and two cynomolgus monkey donors using Leukosep tube and Nycoprep 1.077 buffer according to the manufacture's recommendation. Mouse splenocytes were isolated from C57/BL6 mouse spleens by macerating and straining over a 70 μm cell strainer. Isolated PBMCs or splenocytes were then frozen down using frozen medium. On the day of the assay, PBMCs or splenocytes were thawed and cultured in PBMC culture medium (RPMI supplemented with 10% heat-inactivated fetal bovine serum from Hyclone, 1% Penicillin/Streptomycin and 2 mmol/L-glutamax). 300 k of PBMC or splenocytes in 50 μl of culture medium were seeded in 96-well cell culture plates. 50 μl of the test articles (formulated at 2× of starting concentration) were then added into the well. The cell mixtures were co-cultured in the presence of test articles and 10 μg/ml LPS-RS for 48 hr. The cells were collected by Accutase and then stained with antibodies to different cell population markers and activation markers. Cells were washed, fixed with 2% PFA overnight, and read on the Attune N×T cytometer (Thermo Fisher). Monocyte activation was indicated as increase of CD86 expression on CD14+ cells. B cell activation was indicated as increase of CD86 expression on CD14−/Lin+/HLA-DR+ cells. Dendritic cells (DC) activation was indicated as increase of CD86 expression on CD14−/Lin−/HLA-DR+/CD123+ cells.

With `CCCCCNc1nc(N)nc2ccn(Cc3ccc(CN4CCNCC4)cc3OC)c12` [Compound 1, 5-(2-methoxy-4-(piperazin-1-ylmethyl)benzyl)-N4-pentyl-5H-pyrrolo[3,2-d]pyrimidine-2,4-diamine, reference compound], in data set [1], it took 2.6 nM to reach a half-maximal effect (EC50).
Consider `CCCCCNc1nc(N)nc2ccn(Cc3ccc(CN4CC(NC)C4)cc3OC)c12` [Compound 2, 5-(2-methoxy-4-((3-(methylamino)azetidin-1-yl)methyl)benzyl)-N4-pentyl-5H-pyrrolo[3,2-d]pyrimidine-2,4-diamine], for which the tolerability entry in data set [2] (0.1-2 mg/kg intratumoral, Day 0 and 4) is recorded as “well tolerated”. Also, the “dose-related minimal body weight loss” value in data set [2] (FIG. 7A legend, mice bearing MC38-hFolRα tumors) is recorded as < 10 % of predose. Besides, the body weight loss result in data set [2] (doses >0.5 mg/kg intratumoral, Day 0 and 4, recovery by approximately Day 7, FIG. 7A) is “approximately 5%”.
As to `CCCCCNc1nc(N)nc2ccn(Cc3ccc(CN4CC5(CNCCO5)C4)cc3OC)c12` [Compound 10, 5-[[2-methoxy-4-(5-oxa-2,8-diazaspiro[3.5]nonan-2-ylmethyl)phenyl]methyl]-N4-pentyl-pyrrolo[3,2-d]pyrimidine-2,4-diamine], the IL-6 release entry in data set [3] (FIG. 5A) is “strong”. In data set [3] (FIG. 5B), the MCP-1 release result is “strong”. Besides, the activation of monocytes entry in data set [4] (FIG. 1A) is reported as “very potent”. Further, the “activation of B cells” value in data set [4] (FIG. 1B) is “very potent”. Moreover, in data set [4] (FIG. 1C), the “activation of cDCs” value is “very potent”. In addition, the “activation of pDCs” value in data set [4] (FIG. 1D) is “very potent”. The concentration giving a half-maximal response (EC50) in data set [1] amounted to 22.9 nM.
